The text below walks through data of patent US8735414B2 (priority 2009, dated 2014).

Structures are written as SMILES. pIC50: −log10 of the molar value. Where only a bound is given, the exact number is not on record here.

Broadly, the pIC50 is the IC50 on a negative log10 scale, so that one unit is a factor of ten. In general, melting point refers to the temperature of the solid-liquid transition.

Data set [1] deals with bicistronic HCV replicon (replicon RNA, GenBank Accession No. AJ242654). Nature of the data set: HCV Replicon Assay. It counts as cell-based. The conditions noted are these: Hepatitis C virus, 72 h, read-out: Replicon IC50. (In general: Replicon systems follow genome replication, usually without infectious particles.)

For `COc1ccc2c(c1)c(C#N)c(-c1ccc(S(=O)(=O)NC(CF)CF)cn1)n2C1CCC1` [compound 550, 6-(3-cyano-1-cyclobutyl-5-methoxy-1H-indol-2-yl)-N-(1,3-difluoropropan-2-yl)pyridine-3-sulfonamide], the melting point is 149 to 150 °C. Besides, the negative logarithm of the IC50 (pIC50) in data set [1] was more than 6.30.
The compound `C[C@H](NS(=O)(=O)c1ccc(-c2c(C#N)c3ccc(OC(F)(F)F)cc3n2CC2CC2)nc1)C1CC1` [compound 309, 6-[3-cyano-1-(cyclopropylmethyl)-6-(trifluoromethoxy)-1H-indol-2-yl]-N-[(1S)-1-cyclopropylethyl]pyridine-3-sulfonamide] showed a melting point of 115 to 117 °C. The pIC50 in data set [1] was more than 6.30.
In the same order, the values of `CCc1ccc2c(C#N)c(-c3ccc(S(=O)(=O)N[C@H](C)C(F)(F)F)cn3)n(C3CCCC3)c2c1` [compound 311, 6-(3-cyano-1-cyclopentyl-6-ethyl-1H-indol-2-yl)-N-[(2R)-1,1,1-trifluoropropan-2-yl]pyridine-3-sulfonamide] are 185 to 186 °C and more than 6.30.
For `N#Cc1c(-c2ncc(S(=O)(=O)NC(CF)CF)cn2)n(C2CCCCC2)c2cc(F)ccc12` [compound 235, 2-(3-cyano-1-cyclohexyl-6-fluoro-1H-indol-2-yl)-N-(1,3-difluoropropan-2-yl)pyrimidine-5-sulfonamide], the melting point is 213 to 218 °C. Further, in data set [1], the negative logarithm of the IC50 (pIC50) is more than 6.30.
In turn, `N#Cc1c(-c2ccc(S(=O)(=O)NC3(C(F)(F)F)CC3)cn2)n(C2CCC2)c2ccc(F)cc12` [compound 329, 6-(3-cyano-1-cyclobutyl-5-fluoro-1H-indol-2-yl)-N-[1-(trifluoromethyl)cyclopropyl]pyridine-3-sulfonamide] came in with a melting point of 176 to 183 °C. In addition, the pIC50 in data set [1] is more than 6.30.
`Cc1ccc2c(c1)c(C#N)c(-c1ncc(S(=O)(=O)N[C@@H](C)C(F)(F)F)cn1)n2C1CCC1` [compound 414, 2-(3-cyano-1-cyclobutyl-5-methyl-1H-indol-2-yl)-N-[(2S)-1,1,1-trifluoropropan-2-yl]pyrimidine-5-sulfonamide] had a melting point of 190 to 195 °C. In addition, the negative logarithm of the IC50 (pIC50) in data set [1] was more than 6.30.
`C[C@H](NS(=O)(=O)c1ccc(-c2c(C#N)c3ccc(OC(F)(F)F)cc3n2C2CCC2)nc1)C(F)(F)F` [compound 370, 6-[3-cyano-1-cyclobutyl-6-(trifluoromethoxy)-1H-indol-2-yl]-N-[(2S)-1,1,1-trifluoropropan-2-yl]pyridine-3-sulfonamide] came in with a melting point of 165 to 175 °C. Besides, in data set [1], the pIC50 is more than 6.30.
On to `C[C@H](NS(=O)(=O)c1ccc(-c2c(C(N)=O)c3c(F)cc(OC(F)F)cc3n2C2CCC2)nc1)C(F)(F)F` [compound 825, 1-cyclobutyl-6-(difluoromethoxy)-4-fluoro-2-(5-{[(2S)-1,1,1-trifluoropropan-2-yl]sulfamoyl}pyridin-2-yl)-1H-indole-3-carboxamide], for which the melting point lay in the range of 254 to 256 °C. The pIC50 in data set [1] is more than 6.30.
`CC(C)NS(=O)(=O)c1cnc(-c2c(C#N)c3ccc(C(F)F)cc3n2C2CCC2)nc1` [compound 332, 2-[3-cyano-1-cyclobutyl-6-(difluoromethyl)-1H-indol-2-yl]-N-(propan-2-yl)pyrimidine-5-sulfonamide] returned a melting point of 221 to 227 °C. In addition, the pIC50 in data set [1] was more than 6.30.
As for `N#Cc1ccc2c(C#N)c(-c3ccc(S(=O)(=O)NC(CF)CF)cn3)n(C3CCCC3)c2c1` [compound 468, 6-(3,6-dicyano-1-cyclopentyl-1H-indol-2-yl)-N-(1,3-difluoropropan-2-yl)pyridine-3-sulfonamide], the melting point lay in the range of 219 to 221 °C. Besides, the pIC50 in data set [1] was more than 6.30.
On to `N#Cc1ccc2c(C#N)c(-c3ccc(S(=O)(=O)NC(CF)CF)cn3)n(CC3CC3)c2c1` [compound 347, 6-[3,6-dicyano-1-(cyclopropylmethyl)-1H-indol-2-yl]-N-(1,3-difluoropropan-2-yl)pyridine-3-sulfonamide], for which the melting point fell in the range of 199 to 201 °C. Moreover, the pIC50 in data set [1] was 5.70 to 6.30.
`Cc1cc2c(cc1F)c(C(N)=O)c(-c1ccc(S(=O)(=O)NC(C)(C)C)cn1)n2-c1ccccc1` [compound 1116, 2-[5-(tert-butylsulfamoyl)pyridin-2-yl]-5-fluoro-6-methyl-1-phenyl-1H-indole-3-carboxamide] came in with a melting point of 241.2 to 242.5 °C. The pIC50 in data set [1] was more than 6.30.
Turning to `Cc1c(F)cc2c(c1F)c(C#N)c(-c1ccc(S(=O)(=O)N[C@@H](C)C(F)(F)F)cn1)n2C1CCCC1` [compound 559, 6-(3-cyano-1-cyclopentyl-4,6-difluoro-5-methyl-1H-indol-2-yl)-N-[(2S)-1,1,1-trifluoropropan-2-yl]pyridine-3-sulfonamide], the melting point was 218 to 224 °C. In data set [1], the pIC50 was more than 6.30.
The corresponding values for `N#Cc1c(-c2ncc(S(=O)(=O)NC(CF)CF)cn2)n(CC2CC2)c2cc(C3CC3)ccc12` [compound 344, 2-[3-cyano-6-cyclopropyl-1-(cyclopropylmethyl)-1H-indol-2-yl]-N-(1,3-difluoropropan-2-yl)pyrimidine-5-sulfonamide] are 205 to 210 °C and more than 6.30.
With `Cc1cc2c(cc1Cl)c(C#N)c(-c1ccc(S(=O)(=O)N[C@@H](C)C(F)(F)F)cn1)n2-c1ncccn1` [compound 785, 6-[5-chloro-3-cyano-6-methyl-1-(pyrimidin-2-yl)-1H-indol-2-yl]-N-[(2S)-1,1,1-trifluoropropan-2-yl]pyridine-3-sulfonamide], the melting point fell in the range of 210 to 212 °C. Also, the negative-log IC50 (pIC50) in data set [1] is more than 6.30.
The compound `C[C@H](NS(=O)(=O)c1ccc(-c2c(C#N)c3cc(Cl)ccc3n2C2CCC2)nc1)C(F)(F)F` [compound 376, 6-(5-chloro-3-cyano-1-cyclobutyl-1H-indol-2-yl)-N-[(2S)-1,1,1-trifluoropropan-2-yl]pyridine-3-sulfonamide] returned a melting point of 193 to 198 °C. Besides, the negative-log IC50 (pIC50) in data set [1] is more than 6.30.
Turning to `C[C@H](NS(=O)(=O)c1ccc(-c2c(C#N)c3cc(F)c(O)cc3n2C2CCCC2)nc1)C(F)(F)F` [compound 576, 6-(3-cyano-1-cyclopentyl-5-fluoro-6-hydroxy-1H-indol-2-yl)-N-[(2S)-1,1,1-trifluoropropan-2-yl]pyridine-3-sulfonamide], the melting point lay in the range of 214 to 216 °C. In addition, the pIC50 in data set [1] was more than 6.30.
Consider `Cc1ccc2c(C#N)c(-c3ccc(S(=O)(=O)NC(C)(C)C(F)(F)F)cn3)n(C3CCCC3)c2c1F` [compound 579, 6-(3-cyano-1-cyclopentyl-7-fluoro-6-methyl-1H-indol-2-yl)-N-(1,1,1-trifluoro-2-methylpropan-2-yl)pyridine-3-sulfonamide], for which the melting point is 203 to 205 °C. The negative logarithm of the IC50 (pIC50) in data set [1] is more than 6.30.
Compound `N#Cc1c(-c2ccc(S(=O)(=O)Nc3ccccc3)cn2)n(C2CCC2)c2cc(OC(F)F)c(F)cc12` [compound 791, 6-[3-cyano-1-cyclobutyl-6-(difluoromethoxy)-5-fluoro-1H-indol-2-yl]-N-phenylpyridine-3-sulfonamide] registered a melting point of 178 to 179 °C. In addition, the pIC50 in data set [1] was 5.30 to 5.70.
